Source: US8084467B2, “Pyrazole derivatives as cannabinoid receptor antagonists” (University of Connecticut, priority 2004, dated 2011)
pKi: −log10 of the molar value.

Columns and labels:
CB1 cannabinoid receptor = target: T1, CB1 cannabinoid receptor (Rattus norvegicus, UniProt P20272); test: CB1 receptor binding, rat forebrain membranes, [3H] CP-55,940 displacement
T1 construct: membranes were prepared from rat forebrain membranes; from tissue; host or cells: rat forebrain
Method: Some of the inventive analogs were tested for CB2 receptor binding affinity and for CB1 receptor affinity (to determine selectivity). […] The lower the Ki value the higher the binding affinity. […]
Membranes, previously frozen at −80° C., were thawed on ice. To the stirred suspension was added three volumes of TME (25 mM Tris-HCl buffer, 5 mM MgCl2 and 1 mM EDTA) at a pH 7.4. The suspension was incubated at 4° C. for 30 min. At the end of the incubation, the membranes were pelleted and washed three times with TME.
(§1) The treated membranes were subsequently used in the binding assay described below. Approximately 30 μg of membranes were incubated in silanized 96-well microtiter plate with TME containing 0.1% essentially fatty acid-free bovine serum albumin (BSA), 0.8 nM [^3H] […] Radioactivity was detected using MicroScint 20 scintillation cocktail added directly to the dried filterplates, and the filterplates were counted using a Packard Instruments Top-Count. […] Data collected from three independent experiments performed with duplicate determinations was normalized between 100% and 0% specific binding for [^3H] […] The normalized data was analyzed using a 4-parameter nonlinear logistic equation to yield IC50 values.

CB2 receptor = target: T2, CB2 receptor (Mus musculus, UniProt P47936); test: CB2 receptor binding, mouse spleen membranes, same manner as the CB1 binding assay; settings: mouse spleen membranes, [3H] CP-55,940; read-out: affinities Ki CB2
T2 construct: membranes were prepared from frozen mouse spleen; from tissue; host or cells: mouse spleen
Method: Some of the inventive analogs were tested for CB2 receptor binding affinity and for CB1 receptor affinity (to determine selectivity). […] The lower the Ki value the higher the binding affinity.
as §1
Silanized centrifuge tubes were used throughout to minimize receptor loss due to adsorption. The CB2 binding assay was conducted in the same manner as for the CB1 binding assay. The binding affinities (Ki) were also expressed in nanomoles (nM).

rats = test: Food-reinforced lever pressing in trained rats; type: in vivo, rat; settings: IP, various dosages, tested ten minutes after injection, FIG. 1, p<0.05
Method: 11 rats were trained to press a lever five times to receive a 45 mg food pellet. The training continued over a time period of several weeks. After the training period all rats received drug treatments once per week. The specific rat receiving a drug treatment and the dosage given were each randomly varied. The treatments comprised administration of a vehicle control solution or various dosages of inventive compound 1-5 in combination with the vehicle control solution. All injections were given IP. Ten minutes after injection the rat was placed in proximity to the lever.
FIG. 1 illustrates a mean (±SEM) number of lever presses in 30 min for treated animals. […] FIG. 1 illustrates a classic dose response curve wherein as the dose of drug (inventive compound 1-5) increases, lever pressing consistently decreases. Without wishing to be bound to any theory, applicants believe that inventive compound 1-5 antagonizes (blocks) the CB1 receptors, thereby suppressing appetite and leading to decreased lever pressing.

T1 sequence (P20272 whole entry): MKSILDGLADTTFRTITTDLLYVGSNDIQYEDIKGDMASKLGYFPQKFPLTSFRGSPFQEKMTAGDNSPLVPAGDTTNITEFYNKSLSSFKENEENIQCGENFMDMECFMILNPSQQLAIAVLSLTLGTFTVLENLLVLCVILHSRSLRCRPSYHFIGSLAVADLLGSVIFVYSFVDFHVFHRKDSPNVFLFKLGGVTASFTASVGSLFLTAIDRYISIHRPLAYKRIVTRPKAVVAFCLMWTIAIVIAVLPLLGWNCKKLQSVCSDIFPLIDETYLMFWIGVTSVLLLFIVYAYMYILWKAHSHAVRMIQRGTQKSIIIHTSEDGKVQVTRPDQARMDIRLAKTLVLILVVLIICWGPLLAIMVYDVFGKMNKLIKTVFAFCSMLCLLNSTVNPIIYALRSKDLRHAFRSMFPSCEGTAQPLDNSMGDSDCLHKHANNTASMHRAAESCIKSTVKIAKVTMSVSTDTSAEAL
T2 sequence (P47936 whole entry): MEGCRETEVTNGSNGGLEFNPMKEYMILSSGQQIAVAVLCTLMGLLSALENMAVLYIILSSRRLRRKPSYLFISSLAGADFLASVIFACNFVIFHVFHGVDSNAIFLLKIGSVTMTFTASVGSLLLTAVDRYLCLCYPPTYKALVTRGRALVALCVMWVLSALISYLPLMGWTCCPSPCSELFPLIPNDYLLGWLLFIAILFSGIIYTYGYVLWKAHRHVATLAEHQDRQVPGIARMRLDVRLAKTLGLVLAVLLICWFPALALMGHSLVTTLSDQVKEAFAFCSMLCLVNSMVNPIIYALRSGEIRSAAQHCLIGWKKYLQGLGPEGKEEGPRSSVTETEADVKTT

pKi (CB1 cannabinoid receptor; rat forebrain membranes, 0.8 nM [3H] CP-55,940, read-out: affinities Ki CB1): 8.24
selectivity CB1 (CB1 cannabinoid receptor; ratio of CB2 Ki to CB1 Ki): 398
pKi (CB2 receptor): 5.64
Compound: O=C(NN1CCCCC1)c1nn(-c2ccc(Cl)cc2Cl)c(-c2ccc(-c3cccnc3)cc2)c1CO [Compound 1-5]
suppression of food-reinforced lever pressing (number of lever presses in 30 min) (rats): suppression of food-reinforced lever pressing was statistically significant
